In patent US5998435A, “Use of a tachykinin antagonist for the manufacture of a medicament for the treatment of emesis” (priority 1998, dated 1999):
Entries after “also recorded” stand apart in the source; their conditions may differ. Where two headings read alike, the source gives them in different places.

Legend:
[1] = system: copper sulphate-induced emesis; assay: Copper sulphate-induced emesis in the ferret; conditions: Mustela putorius, 2 h, read-out: MED, copper sulphate-induced emesis
[2] = Side effect liability: sedation or ataxia in the hamster; type: in vivo; conditions: up to 100 mg/kg s.c.
[3] = system: apomorphine-induced emesis; assay: Apomorphine-induced emesis in the ferret; conditions: Mustela putorius, 1 h, read-out: MED, apomorphine-induced emesis
[4] = Blood pressure and heart rate of anaesthetized guinea-pigs; type: in vivo, guinea-pig; conditions: 0.1-1.0 mg/kg i.v.
[5] = Side effect liability: sedation or ataxia in the mouse; type: in vivo; conditions: up to 100 mg/kg s.c.
[6] = Pharmacokinetics and oral bioavailability in the rat; type: in vivo; conditions: plasma; for Cmax: fasted male Wistar rats; for AUC(0-inf): read-out: AUC zero to infinite time; for half-life: read-out: t1/2 terminal elimination half-life (converted); for clearance: read-out: Cl total systemic clearance; for Vd: read-out: Vd steady-state volume of distribution
Method: 0.5% methyl cellulose, and nanosystem vehicle, The drug was administered either PO by gavage or IV via jugular vein. Blood samples were drawn from jugular vein cannulac into syringes containing heparin before dosing and at different times up to 24 hours postdose. Plasma was harvested by centrifugation and stored at -20° C. until analysis. Plasma samples were analyzed for The Compound using a validated liquid chromatographic method.

[7] = molecular target: NK1 recognition sites (Mustela putorius, UniProt M3YAE5); assay: NK1 binding, ferret
[8] = molecular target: T1, NK1 recognition sites (Mesocricetus auratus, UniProt A0A1U7QPR6); assay: NK1 binding, hamster brain
T1 construct: NK1 recognition sites present in human cell line, guinea pig, dog, ferret, and hamster brain; from tissue; host or cells: hamster brain

[9] = system: pancreatic amylase; assay: Secretion of pancreatic amylase in the rat; type: in vivo; conditions: 0.01-10 mg/kg i.v.
[10] = system: cisplatin-induced emesis; conditions: cisplatin 5 mg/kg i.p.; The Compound 10 mg/kg or ondansetron 1 mg/kg i.p. three times a day
[11] = system: vehicle-induced emetic response; assay: PEG-200 vehicle-induced emetic response in the ferret; type: in vivo; conditions: 10 mg/kg; PEG-200 1 mL/kg i.p.
[12] = Brain penetration in the rat using HPLC assay; type: in vivo; conditions: for Tmax: read-out: time of highest brain concentration (converted);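 on % Dose in Brain: IV 4.5 mg/kg via tail vein or PO 21.4 mg/kg by gavage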;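 on amount in brain: IV 4.5 mg/kg via tail vein or PO 21.4 mg/kg by gavage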
Method: Three rats were used for each time point. Prior to blood and brain sampling, rats were anesthetized with ether. Blood samples were collected by cardiac puncture. After transcardiac perfusion with normal saline, whole brains were collected. Plasma and brain samples were analyzed using liquid chromatographic florescence detection methods. […] Total amount in brain at these times was respectively 2.5 and 0.04 μg (Tables 2 and 13). Brain to plasma concentration ratio after IV administration was highest (1.8) at 15 minutes and then decreased to a steady value approximately 0.5 at later postdose times (Table 2).

[13] = system: cisplatin-induced emesis; assay: Cisplatin-induced acute emesis in the ferret; type: in vivo
Description: Adult male albino Fitch ferrets (>1 kg weight) were individually housed with free access to food (SDS Diet "C", Special Diet Services Ltd, Essex, U.K.). Thirty minutes prior to the commencement of the studies, the ferrets were presented with 100 g of commercially available tinned cat food.

Chain of NK1 recognition sites (Mustela putorius, UniProt M3YAE5) (M3YAE5 1-407): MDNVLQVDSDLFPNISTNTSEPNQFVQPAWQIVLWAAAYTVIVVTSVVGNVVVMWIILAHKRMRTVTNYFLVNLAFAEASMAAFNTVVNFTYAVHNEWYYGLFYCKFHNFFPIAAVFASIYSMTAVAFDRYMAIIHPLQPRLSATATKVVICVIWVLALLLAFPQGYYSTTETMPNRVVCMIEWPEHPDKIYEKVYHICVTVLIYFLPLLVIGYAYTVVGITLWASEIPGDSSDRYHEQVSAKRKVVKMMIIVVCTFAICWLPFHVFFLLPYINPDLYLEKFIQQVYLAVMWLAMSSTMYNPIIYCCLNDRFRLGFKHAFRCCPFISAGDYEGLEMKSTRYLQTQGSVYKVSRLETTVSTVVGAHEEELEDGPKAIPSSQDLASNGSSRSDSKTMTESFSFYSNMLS
T1 sequence (A0A1U7QPR6 1-407): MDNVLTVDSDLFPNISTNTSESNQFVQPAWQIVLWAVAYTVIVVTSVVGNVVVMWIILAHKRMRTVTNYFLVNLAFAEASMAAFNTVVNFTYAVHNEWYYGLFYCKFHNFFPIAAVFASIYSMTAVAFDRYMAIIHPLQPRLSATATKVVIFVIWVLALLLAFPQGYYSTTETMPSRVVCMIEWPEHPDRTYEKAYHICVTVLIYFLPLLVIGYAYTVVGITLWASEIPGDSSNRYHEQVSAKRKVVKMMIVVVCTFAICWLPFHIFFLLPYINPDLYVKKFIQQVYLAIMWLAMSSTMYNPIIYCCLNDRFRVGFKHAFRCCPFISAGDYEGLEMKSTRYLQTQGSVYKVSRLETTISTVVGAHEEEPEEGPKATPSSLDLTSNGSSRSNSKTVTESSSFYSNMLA

## C[C@H](NC(=O)[C@@](C)(Cc1c[nH]c2ccccc12)NC(=O)OCc1cc2ccccc2o1)c1ccccc1 [The Compound, [R,S]-[2-(1H-Indol-3-yl)-1-methyl-1-(1-phenyl-ethylcarbamoyl)-ethyl]-carbamic acid benzofuran-2-ylmethyl ester]
[1]
  minimal effective dose: 30 mg/kg
[2]
  ataxia: failed to induce
  sedation: failed to induce
[3]
  minimal effective dose: 30 mg/kg
[4]
  blood pressure: failed to affect
  heart rate: failed to affect
[5]
  ataxia: failed to induce
  sedation: failed to induce
[6]; MC suspension PO 3.7 mg/kg
  Tmax: 3.5 h
  Cmax: 15.1 ng/mL
  AUC(0-inf): 107 ng·h/mL
  half-life: 168 min
[6]; MC suspension PO 3.7 mg/kg, read-out: % F absolute oral bioavailability
  bioavailability: 4.1%
[6]; NANOSUSPENSION IV 4.6 mg/kg
  AUC(0-inf): 2790 ng·h/mL
  clearance: 27.8 mL/min/kg
  Vd: 3.7 L/kg
  half-life: 288 min
[6]; NANOSUSPENSION PO 18.4 mg/kg
  Tmax: 2.3 h
  Cmax: 643 ng/mL
  AUC(0-inf): 5220 ng·h/mL
  half-life: 150 min
[6]; NANOSUSPENSION PO 18.4 mg/kg, read-out: % F absolute oral bioavailability
  bioavailability: 47%
[6]; PEG-400 solution IV 5 mg/kg
  AUC(0-inf): 3560 ng·h/mL
  clearance: 23.9 mL/min/kg
  Vd: 3 L/kg
  half-life: 210 min
[6]; PEG-400 solution PO 20 mg/kg
  Tmax: 5 h
  Cmax: 774 ng/mL
  AUC(0-inf): 6960 ng·h/mL
  half-life: 180 min
[6]; PEG-400 solution PO 20 mg/kg, read-out: % F absolute oral bioavailability
  bioavailability: 49%
[6]; po, nanosuspension and PEG/EtOH/Water vehicles, read-out: absolute oral bioavailability
  bioavailability: 47 to 49%
[7]
  affinity to NK1 recognition sites: nanamolar affinity
[8]
  affinity to NK1 recognition sites: nanamolar affinity
[9]
  stimulation of secretion of pancreatic amylase: failed
[10]
  delayed emesis during the 3 days (3-72 hours): completely blocked
  retching and vomiting during the first 3 hours of the emetic response (acute): completely blocked
[11]
  antagonism of vehicle-induced emetic response: completely antagonized
[12]; IV 4.5 mg/kg, 15 minutes
  total amount in brain: 2.5 µg
[12]; IV bolus 4.5 mg/kg in PEG-400/EtOH/Water, 0.25 h, 4.5 mg/kg, 15 min
  Brain Conc. (BC): 1448 ± 456 ng/g
[12]; IV bolus 4.5 mg/kg, 0.25 h
  % Dose in Brain: 0.235 ± 0.051%
  Amount in Brain: 2711 ± 668 ng
[12]; IV bolus 4.5 mg/kg, 2 h
  % Dose in Brain: 0.0098%
  Amount in Brain: 114 ± 8.6 ng
[12]; IV bolus 4.5 mg/kg, 4 h
  % Dose in Brain: 0.0033 ± 0.0003%
  Amount in Brain: 40 ± 3.4 ng
[12]; IV bolus 4.5 mg/kg, 8 h
  % Dose in Brain: 0.0078%
  Amount in Brain: 9.6 ng
[12]; PO 21.4 mg/kg, 0.25 h
  % Dose in Brain: 0.00095 ± 0.00053%
  Amount in Brain: 57 ± 31 ng
[12]; PO 21.4 mg/kg, 2 h
  % Dose in Brain: 0.00291%
  Amount in Brain: 189 ± 156 ng
[12]; PO 21.4 mg/kg, 2 hours
  total amount in brain: 0.04 µg
[12]; PO 21.4 mg/kg, 4 h
  % Dose in Brain: 0.0064%
  Amount in Brain: 410 ± 333 ng
[12]; PO 21.4 mg/kg, 8 h
  % Dose in Brain: 0.0013 ± 0.0012%
  Amount in Brain: 81 ± 73 ng
[12]; PO 21.4 mg/kg, 12 h
  % Dose in Brain: 0.00047 ± 0.00017%
  Amount in Brain: 30 ng
[12]; brain, IV 4.5 mg/kg
  Tmax: 0.25 h
[12]; brain, PO 21.4 mg/kg
  Tmax: 2 h
[12]; brain, iv, 4.5 mg/kg, IV 4.5 mg/kg, later postdose times, read-out: brain to plasma concentration ratio, steady value
  Kp: ~0.5
[12]; brain, iv, 4.5 mg/kg, IV bolus 4.5 mg/kg in PEG-400/EtOH/Water, 0.25 h, read-out: Brain Conc. (BC)
  concentration at 0.25 h: 1400 ng/g
[12]; brain, iv, 4.5 mg/kg, IV bolus 4.5 mg/kg, 0.25 h, read-out: BC/PC Ratio
  Kp at 0.25 h: 1.8
[12]; brain, iv, 4.5 mg/kg, IV bolus 4.5 mg/kg, 2 h, read-out: BC/PC Ratio
  Kp at 2 h: 0.47 ± 0.11
[12]; brain, iv, 4.5 mg/kg, IV bolus 4.5 mg/kg, 2 h, read-out: Brain Conc. (BC)
  concentration at 2 h: 57 ± 4.5 ng/g
[12]; brain, iv, 4.5 mg/kg, IV bolus 4.5 mg/kg, 4 h, read-out: BC/PC Ratio
  Kp at 4 h: 0.47 ± 0.05
[12]; brain, iv, 4.5 mg/kg, IV bolus 4.5 mg/kg, 4 h, read-out: Brain Conc. (BC)
  concentration at 4 h: 20 ± 1.9 ng/g
[12]; brain, iv, 4.5 mg/kg, IV bolus 4.5 mg/kg, 8 h, N = 1, read-out: Brain Conc. (BC)
  concentration at 8 h: 4.8 ng/g
[12]; brain, iv, 4.5 mg/kg, IV bolus 4.5 mg/kg, 8 h, read-out: BC/PC Ratio
  Kp at 8 h: 0.52
[12]; brain, po, 21.4 mg/kg, PO 21.4 mg/kg in PEG-400/EtOH/Water, 0.25 h, read-out: Brain Conc. (BC)
  concentration at 0.25 h: 31 ± 17 ng/g
[12]; brain, po, 21.4 mg/kg, PO 21.4 mg/kg, 0.25 h, read-out: BC/PC Ratio
  Kp at 0.25 h: 0.27 ± 0.06
[12]; brain, po, 21.4 mg/kg, PO 21.4 mg/kg, 2 h, read-out: BC/PC Ratio
  Kp at 2 h: 0.3 ± 0.03
[12]; brain, po, 21.4 mg/kg, PO 21.4 mg/kg, 2 h, read-out: Brain Conc. (BC)
  concentration at 2 h: 96 ± 79 ng/g
[12]; brain, po, 21.4 mg/kg, PO 21.4 mg/kg, 4 h, read-out: BC/PC Ratio
  Kp at 4 h: 0.29 ± 0.09
[12]; brain, po, 21.4 mg/kg, PO 21.4 mg/kg, 4 h, read-out: Brain Conc. (BC)
  concentration at 4 h: 212 ± 168 ng/g
[12]; brain, po, 21.4 mg/kg, PO 21.4 mg/kg, 8 h, read-out: BC/PC Ratio
  Kp at 8 h: 0.33 ± 0.11
[12]; brain, po, 21.4 mg/kg, PO 21.4 mg/kg, 8 h, read-out: Brain Conc. (BC)
  concentration at 8 h: 41 ± 38 ng/g
[12]; brain, po, 21.4 mg/kg, PO 21.4 mg/kg, 12 h, read-out: BC/PC Ratio
  Kp at 12 h: 0.41 ± 0.27
[12]; brain, po, 21.4 mg/kg, PO 21.4 mg/kg, 12 h, read-out: Brain Conc. (BC)
  concentration at 12 h: 15 ± 5 ng/g
[12]; following IV administration
  penetration into the brain: fast
[12]; plasma, iv, 4.5 mg/kg, IV bolus 4.5 mg/kg, 0.25 h, read-out: Plasma Conc. (PC)
  concentration at 0.25 h: 819 ± 87 ng/mL
[12]; plasma, iv, 4.5 mg/kg, IV bolus 4.5 mg/kg, 2 h, read-out: Plasma Conc. (PC)
  concentration at 2 h: 124 ± 17 ng/mL
[12]; plasma, iv, 4.5 mg/kg, IV bolus 4.5 mg/kg, 4 h, read-out: Plasma Conc. (PC)
  concentration at 4 h: 43 ± 5.6 ng/mL
[12]; plasma, iv, 4.5 mg/kg, IV bolus 4.5 mg/kg, 8 h, read-out: Plasma Conc. (PC)
  concentration at 8 h: 5.6 ± 3.3 ng/mL
[12]; plasma, iv, 4.5 mg/kg, IV bolus 4.5 mg/kg, 12 h, read-out: Plasma Conc. (PC)
  concentration at 12 h: 4 ± 1.1 ng/mL
[12]; plasma, po, 21.4 mg/kg, PO 21.4 mg/kg, 0.25 h, read-out: Plasma Conc. (PC)
  concentration at 0.25 h: 126 ± 92 ng/mL
[12]; plasma, po, 21.4 mg/kg, PO 21.4 mg/kg, 2 h, read-out: Plasma Conc. (PC)
  concentration at 2 h: 301 ± 244 ng/mL
[12]; plasma, po, 21.4 mg/kg, PO 21.4 mg/kg, 4 h, read-out: Plasma Conc. (PC)
  concentration at 4 h: 642 ± 433 ng/mL
[12]; plasma, po, 21.4 mg/kg, PO 21.4 mg/kg, 8 h, read-out: Plasma Conc. (PC)
  concentration at 8 h: 108 ± 80 ng/mL
[12]; plasma, po, 21.4 mg/kg, PO 21.4 mg/kg, 12 h, read-out: Plasma Conc. (PC)
  concentration at 12 h: 45 ± 20 ng/mL
[13]; 30 mg/kg i.p., cisplatin 10 mg/kg i.p.
  antagonism of the emetic response: complete antagonism; also recorded: completely antagonized
[13]; Mustela putorius, i.p. in PEG-200, 3-30 mg/kg, 1 hour before cisplatin 10 mg/kg i.p., 4-hour observation, read-out: minimum effective dose, frequency of vomiting and retching
  minimal effective dose: 3 mg/kg
